Measured values published in the NIST ThermoML archive (doi:10.1021/je060271a).
± gives the expanded uncertainty stated by the source.

Settings: 343.15 K, Liquid, Vibrating tube method

CCCCCC(=O)OCC(COC(=O)CCCCC)(COC(=O)CCCCC)COC(=O)CCCCC [pentaerythritol tetrahexanoate]
Settings | mass density [kg/m3]
21939 kPa | 973 ± 1.2
21970 kPa | 972.9 ± 1.2
21994 kPa | 973 ± 1.2
22600 kPa | 973.4 ± 1.2
22626 kPa | 973.4 ± 1.2
22658 kPa | 973.4 ± 1.2
22686 kPa | 973.3 ± 1.2
22712 kPa | 973.5 ± 1.2
22744 kPa | 973.6 ± 1.2
22771 kPa | 973.5 ± 1.2
22798 kPa | 973.5 ± 1.2
22831 kPa | 973.5 ± 1.2
22858 kPa | 973.7 ± 1.2
22886 kPa | 973.6 ± 1.2
22919 kPa | 973.6 ± 1.2
22946 kPa | 973.6 ± 1.2
22973 kPa | 973.7 ± 1.2
23356 kPa | 974 ± 1.2
23808 kPa | 974.2 ± 1.2
23832 kPa | 974.2 ± 1.2
23863 kPa | 974.2 ± 1.2
23889 kPa | 974.2 ± 1.2
24332 kPa | 974.5 ± 1.2
24359 kPa | 974.5 ± 1.2
24391 kPa | 974.4 ± 1.2
24418 kPa | 974.6 ± 1.2
24449 kPa | 974.6 ± 1.2
24476 kPa | 974.6 ± 1.2
24504 kPa | 974.6 ± 1.2
24536 kPa | 974.6 ± 1.2
24563 kPa | 974.7 ± 1.2
24590 kPa | 974.6 ± 1.2
24623 kPa | 974.7 ± 1.2
24651 kPa | 974.6 ± 1.2
24678 kPa | 974.6 ± 1.2
24711 kPa | 974.8 ± 1.2
24738 kPa | 974.7 ± 1.2
24766 kPa | 974.8 ± 1.2
24799 kPa | 974.9 ± 1.2
24827 kPa | 974.8 ± 1.2
24855 kPa | 974.9 ± 1.2
24888 kPa | 974.9 ± 1.2
24917 kPa | 975 ± 1.2
24945 kPa | 974.9 ± 1.2
24979 kPa | 974.9 ± 1.2
25008 kPa | 974.9 ± 1.2
25036 kPa | 975 ± 1.2
25070 kPa | 975 ± 1.2
25099 kPa | 975.2 ± 1.2
25128 kPa | 975 ± 1.2
25162 kPa | 975.1 ± 1.2
25191 kPa | 975.2 ± 1.2
25220 kPa | 975.2 ± 1.2
25249 kPa | 975.1 ± 1.2
25284 kPa | 975.1 ± 1.2
25313 kPa | 975.2 ± 1.2
25349 kPa | 975.2 ± 1.2
25379 kPa | 975.3 ± 1.2
25408 kPa | 975.2 ± 1.2
25438 kPa | 975.4 ± 1.2
25473 kPa | 975.3 ± 1.2
25502 kPa | 975.2 ± 1.2
25532 kPa | 975.2 ± 1.2
25562 kPa | 975.2 ± 1.2
25598 kPa | 975.4 ± 1.2
25628 kPa | 975.4 ± 1.2
25657 kPa | 975.4 ± 1.2
25693 kPa | 975.4 ± 1.2
25724 kPa | 975.5 ± 1.2
26078 kPa | 975.6 ± 1.2
26108 kPa | 975.7 ± 1.2
26134 kPa | 975.6 ± 1.2
